Consider 19 molecules from patent US11453660B2, “Androgen receptor and glucocorticoid receptor modulators” (ONCOSTELLAE, S.L., priority 2017, dated 2022).

One test has as its target T1, Rat Androgen Receptor (Rattus norvegicus, UniProt P15207).
T1 construct: purchased Life Technologies A15880
T1 sequence (P15207 646-902 limits assumed): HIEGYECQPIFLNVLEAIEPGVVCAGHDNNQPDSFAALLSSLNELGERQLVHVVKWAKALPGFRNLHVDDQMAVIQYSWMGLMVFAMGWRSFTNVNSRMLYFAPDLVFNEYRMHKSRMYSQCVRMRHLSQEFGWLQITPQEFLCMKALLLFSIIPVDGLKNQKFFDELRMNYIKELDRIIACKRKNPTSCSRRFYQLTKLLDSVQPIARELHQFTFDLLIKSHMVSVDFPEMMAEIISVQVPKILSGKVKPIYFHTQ
Nature of the test: Rat Androgen Receptor Binding (polarscreen AR competitor assay, fluorescence polarization). Conditions: displacement of Fluormone AL Green, 4 hours at RT, read-out: AR rat-fluorimetric. The method, then:
Pharmacological Activity Rat Androgen Receptor Binding
The assay was carried out following the instructions of polarscreen AR competitor assay green kit (Life Technologies, Cat #.: A15880). Briefly, the test is based on measuring the changes of fluorescence polarization shown by the Fluormone AL Green. Thus, when the Fluormone is bound to the receptor, a fluorescence polarization is observed that diminishes when a ligand competes for the receptor binding site and the Fluormone gets displaced.
The inhibition values for each of the compounds are measured in duplicate at 1 and 10 μM and the plate is incubated for 4 hours at RT. Fluorescence polarization is the measured in a Tecan Infinite M1000 Pro reader (λexc=485 nm, λem=535 nm). In order to obtain a dose-response curve and calculate the potency of inhibition (expressed as IC50) for AR, a series of 1:10 dilutions in test in 1× buffer from 10 μM to 0.1 nM for each compound was carried out.
Background: In fluorescence polarisation assays a small probe gives low polarisation when free and higher when bound to something large.
Consider `CC(=O)C1=C(C)NC(C)=C(C(C)=O)C1c1csc2ccccc12` [Example G1, 1,1′-(4-(benzo[b]thiophen-3-yl)-2,6-dimethyl-1,4-dihydropyridine-3,5-diyl)diethanone], for which the IC50 is < 100 nM. For the molecule `CC(=O)C1=C(C)NC(C)=C(C(=O)OCC2CCCC2)C1c1csc2ncccc12` (stereo not drawn) [Example C35, Cyclopentylmethyl 5-acetyl-2,6-dimethyl-4-(thieno[2,3-b]pyridin-3-yl)-1,4-dihydropyridine-3-carboxylate], the IC50 lay in the range of 100 to 1000 nM. Still for that read-out and setting: for `CC(=O)C1=C(C)NC(C)=C(C(C)=O)C1c1csc2ccc(C(=O)N3CCN(C)CC3)cc12` [Example H11, 1,1′-(2,6-Dimethyl-4-(5-(4-methylpiperazine-1-carbonyl)benzo[b]thiophen-3-yl)-1,4-dihydropyridine-3,5-diyl)bis(ethan-1-one)] the value was ≥ 1000 nM; for `CC(=O)C1=C(C)NC(C)=C(C(C)=O)C1c1csc2ccncc12` [Example H13, 1,1′-(2,6-Dimethyl-4-(thieno[3,2-c]pyridin-3-yl)-1,4-dihydropyridine-3,5-diyl)bis(ethan-1-one)], ≥ 1000 nM. Still for that read-out and setting: for `CC(=O)C1=C(C)NC(C)=C(C(=O)OCC(F)(F)F)C1c1csc2ccccc12` (stereo not drawn) [Example A10, 2,2,2-trifluoroethyl 5-acetyl-4-(benzo[b]thiophen-3-yl)-2,6-dimethyl-1,4-dihydropyridine-3-carboxylate] the value was < 100 nM. `CC(=O)C1=C(C)NC(C)=C(C(C)=O)C1c1csc2ccc(Cl)cc12` [Example H1, 1,1′-(4-(5-chlorobenzo[b]thiophen-3-yl)-2,6-dimethyl-1,4-dihydropyridine-3,5-diyl)diethanone]: the IC50 is < 100 nM. Same read-out and setting: for `COC(=O)C1=C(N)NC(C)=C(C(C)=O)C1c1csc2ccccc12` (stereo not drawn) [Example K2, Methyl 5-acetyl-2-amino-4-(benzo[b]thiophen-3-yl)-6-methyl-1,4-dihydropyridine-3-carboxylate trifluoromethanesulfonate] the value was ≥ 1000 nM; for `COC(=O)C1=C(C2CC2)NC(C)=C(C(C)=O)C1c1csc2ccccc12` (stereo not drawn) [Example J1, Methyl 5-acetyl-4-(benzo[b]thiophen-3-yl)-2-cyclopropyl-6-methyl-1,4-dihydropyridine-3-carboxylate], < 100 nM.

For `COC(=O)C1=C(C(F)(F)F)NC(C)=C(C(C)=O)C1c1csc2ccc(F)cc12` (stereo not drawn) [Example C29, Methyl 5-acetyl-4-(5-fluorobenzo[b]thiophen-3-yl)-6-methyl-2-(trifluoromethyl)-1,4-dihydropyridine-3-carboxylate], the IC50 is < 100 nM.

On to `COC(=O)C1=C(C)NC(C)=C(C(C)=O)C1c1csc2ccc(C(=O)NC3CC3)cc12` (stereo not drawn) [Example J15, Methyl 5-acetyl-4-(5-(cyclopropylcarbamoyl)benzo[b]thiophen-3-yl)-2,6-dimethyl-1,4-dihydropyridine-3-carboxylate], for which the IC50 was ≥ 1000 nM. On the same count and under the same terms, for `CC(=O)C1=C(C)NC(C)=C(C(=O)OCc2cncc(-c3cccnc3)c2)C1c1csc2ncccc12` (stereo not drawn) [Example L8, [3,3′-bipyridin]-5-ylmethyl 5-acetyl-2,6-dimethyl-4-(thieno[2,3-b]pyridin-3-yl)-1,4-dihydropyridine-3-carboxylate] the value was ≥ 1000 nM; for `COC(=O)C1=C(N)NC(C)=C(C(C)=O)C1c1csc2ccc(F)cc12` (stereo not drawn) [Example D3, Methyl 5-acetyl-2-amino-4-(5-fluorobenzo[b]thiophen-3-yl)-6-methyl-1,4-dihydropyridine-3-carboxylate], < 100 nM; for `CC(=O)C1=C(C)NC(C2CC2)=C(C(=O)C2CC2)C1c1csc2ccccc12` (stereo not drawn) [Example B18, 1-(4-(Benzo[b]thiophen-3-yl)-5-(cyclopropanecarbonyl)-6-cyclopropyl-2-methyl-1,4-dihydropyridin-3-yl)ethan-1-one], < 100 nM. As to `COC(=O)C1=C(C)NC(C)=C(C(C)=O)C1c1csc2ccc(C(=O)N3CCOCC3)cc12` (stereo not drawn) [Example J18, Methyl 5-acetyl-2,6-dimethyl-4-(5-(morpholine-4-carbonyl)benzo[b]thiophen-3-yl)-1,4-dihydropyridine-3-carboxylate], the IC50 is ≥ 1000 nM.

Take `CC(=O)C1=C(C)NC(C)=C(C(C)=O)C1c1csc2ccc(NCc3ccccc3)cc12` [Example H6, 1,1′-(4-(5-(benzylamino)benzo[b]thiophen-3-yl)-2,6-dimethyl-1,4-dihydropyridine-3,5-diyl)bis(ethan-1-one)]: the IC50 is ≥ 1000 nM. On the same count and under the same terms, for `CC(=O)C1=C(C)NC(C)=C(C(C)=O)C1c1csc2ccc(N3CCN(C)CC3)cc12` [Example H5, 1,1′-(2,6-dimethyl-4-(5-(4-methylpiperazin-1-yl)benzo[b]thiophen-3-yl)-1,4-dihydropyridine-3,5-diyl)bis(ethan-1-one)] the value was ≥ 1000 nM. The same measure, in the same setting: for `COC(=O)C1=C(C)NC(C)=C(C(C)=O)C1c1csc2ccc(Br)cc12` (stereo not drawn) [Example J12, Methyl 5-acetyl-4-(5-bromobenzo[b]thiophen-3-yl)-2,6-dimethyl-1,4-dihydropyridine-3-carboxylate] the value was < 100 nM. In the case of `CC(=O)C1=C(C)NC(C)=C(C(C)=O)C1c1csc2cnccc12` [Example H14, 1,1′-(2,6-Dimethyl-4-(thieno[2,3-c]pyridin-3-yl)-1,4-dihydropyridine-3,5-diyl)bis(ethan-1-one)], the IC50 was ≥ 1000 nM. On the same count and under the same terms, for `CC(=O)C1=C(C2CC2)NC(C2CC2)=C(C(C)=O)C1c1csc2ccccc12` [Example G4, 1,1′-(4-(Benzo[b]thiophen-3-yl)-2,6-dicyclopropyl-1,4-dihydropyridine-3,5-diyl)diethanone] the value was ≥ 1000 nM.

In a further test the target is T2, human androgen receptor (Homo sapiens, UniProt P10275, T878A).
T2 construct: endogenously expressed human androgen receptor using the LnCap prostate cancer cell line; endogenous in cells; host or cells: LNCaP prostate cancer cell line (whole cells)
T2 sequence (P10275 1-920 T878A): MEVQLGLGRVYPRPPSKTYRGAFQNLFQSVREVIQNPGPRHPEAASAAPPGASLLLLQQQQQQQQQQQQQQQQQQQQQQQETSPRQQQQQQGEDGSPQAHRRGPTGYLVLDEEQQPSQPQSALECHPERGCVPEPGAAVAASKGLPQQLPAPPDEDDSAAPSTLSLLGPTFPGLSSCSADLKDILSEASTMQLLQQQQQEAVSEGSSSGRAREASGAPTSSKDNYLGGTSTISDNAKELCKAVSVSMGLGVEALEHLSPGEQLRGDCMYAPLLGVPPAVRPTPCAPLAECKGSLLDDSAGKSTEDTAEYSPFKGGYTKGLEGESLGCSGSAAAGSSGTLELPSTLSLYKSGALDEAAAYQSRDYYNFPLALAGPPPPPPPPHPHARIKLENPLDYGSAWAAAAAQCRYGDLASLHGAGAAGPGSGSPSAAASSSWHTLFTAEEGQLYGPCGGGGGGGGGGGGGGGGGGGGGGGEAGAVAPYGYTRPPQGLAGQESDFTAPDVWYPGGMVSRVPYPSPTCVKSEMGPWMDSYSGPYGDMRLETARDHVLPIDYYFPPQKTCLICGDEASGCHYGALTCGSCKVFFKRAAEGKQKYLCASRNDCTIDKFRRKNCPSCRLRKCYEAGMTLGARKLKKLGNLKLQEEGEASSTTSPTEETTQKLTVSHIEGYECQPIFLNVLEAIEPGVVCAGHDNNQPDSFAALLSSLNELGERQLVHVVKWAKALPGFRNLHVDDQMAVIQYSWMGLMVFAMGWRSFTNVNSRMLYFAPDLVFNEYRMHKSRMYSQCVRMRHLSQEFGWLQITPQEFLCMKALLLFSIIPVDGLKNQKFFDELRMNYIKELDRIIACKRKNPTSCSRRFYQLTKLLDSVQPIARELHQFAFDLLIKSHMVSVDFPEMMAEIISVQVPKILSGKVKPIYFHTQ
Put plainly: Human Androgen Receptor Binding (radioligand binding, LnCap prostate cancer cell line). Conditions: LnCap cells, displacement of [^3H]-methyltrienolone, 2 hours at 37° C.; read-out: AR LNCaP. Put shortly:
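Whole-cell displacement of [3H]-methyltrienolone from endogenous AR (T878A) in LnCap cells, in RPMI with 0.1% BSA and triamcinolone acetonide. Compounds 10 μM to 0.1 nM in 1:10 steps, 2 h at 37 °C; cells washed, SDS-lysed, bound radioactivity by scintillation counting for IC50.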
Turning to `CC(=O)C1=C(C)NC(C)=C(C(C)=O)C1c1csc2ccccc12` [Example G1, 1,1′-(4-(benzo[b]thiophen-3-yl)-2,6-dimethyl-1,4-dihydropyridine-3,5-diyl)diethanone], the IC50 is < 100 nM.

Another test concerns the target T3, Human Glucocorticoid Receptor (Homo sapiens, UniProt P04150).
T3 construct: endogenous in cells; host or cells: cytosol from IM-9 cell line
T3 sequence (P04150 1-777): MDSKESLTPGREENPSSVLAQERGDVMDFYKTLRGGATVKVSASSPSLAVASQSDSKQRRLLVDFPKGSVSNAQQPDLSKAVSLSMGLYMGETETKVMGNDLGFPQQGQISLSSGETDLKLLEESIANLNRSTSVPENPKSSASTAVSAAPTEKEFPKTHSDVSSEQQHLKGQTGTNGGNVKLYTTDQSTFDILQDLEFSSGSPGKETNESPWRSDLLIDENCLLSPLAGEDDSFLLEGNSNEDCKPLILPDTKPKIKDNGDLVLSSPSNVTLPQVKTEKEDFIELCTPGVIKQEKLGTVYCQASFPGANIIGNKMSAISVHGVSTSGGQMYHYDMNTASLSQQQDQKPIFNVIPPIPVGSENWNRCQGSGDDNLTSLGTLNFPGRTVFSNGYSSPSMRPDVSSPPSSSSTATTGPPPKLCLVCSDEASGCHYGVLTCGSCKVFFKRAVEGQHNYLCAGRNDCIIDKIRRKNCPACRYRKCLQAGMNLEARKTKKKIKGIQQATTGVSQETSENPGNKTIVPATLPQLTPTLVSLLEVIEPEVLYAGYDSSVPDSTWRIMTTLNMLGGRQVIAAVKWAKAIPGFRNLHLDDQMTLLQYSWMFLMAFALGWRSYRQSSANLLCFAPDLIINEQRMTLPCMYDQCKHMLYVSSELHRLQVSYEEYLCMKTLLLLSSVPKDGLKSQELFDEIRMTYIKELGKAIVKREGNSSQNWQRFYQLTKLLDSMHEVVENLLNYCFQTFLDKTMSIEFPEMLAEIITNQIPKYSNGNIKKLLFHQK
Put plainly: Competition Binding in IM-9 Human Glucocorticoid Receptor (GR IM-9). Conditions: cytosol from IM-9 cell line, 1.5 nM [3H]-Dexamethasone, 4° C. for 6 hours. Put shortly: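 Radioligand competition using 100 μg IM-9 cell cytosol and 1.5 nM [3H]-dexamethasone, incubated 6 h at 4° C in TES/molybdate buffer, pH 7.4. Filtration on PEI-treated GF/B filters, scintillation counting; nonspecific binding defined with 10 μM triamcinolone.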
For `CC(=O)C1=C(C)NC(C)=C(C(=O)OCC2CCCC2)C1c1csc2ncccc12` (stereo not drawn) [Example C35, Cyclopentylmethyl 5-acetyl-2,6-dimethyl-4-(thieno[2,3-b]pyridin-3-yl)-1,4-dihydropyridine-3-carboxylate], the IC50 was < 100 nM.
